Assay results published in ChEMBL document CHEMBL1201862, “PubChem BioAssay data set” (2004).
Active and inactive are the calls of the source.

Key:
[1] = target: Cytochrome P450 2D6 (Homo sapiens, UniProt P10635);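 note: CYP2D6 member of a cytochrome P450 panel assay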
[2] = target: Prothrombin (Homo sapiens, UniProt P00734); assay: Thrombin 1536 HTS Dose Response Confirmation. [Related pubchem assays: 1046 (Thrombin 1536 HTS; hits were confirmed in this assay)]; format: functional
[3] = target: Large T antigen (Simian virus 40, UniProt P03070); format: functional, Betapolyomavirus macacae;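 note: Confirmatory-stage PubChem screen for compounds that inhibit SV40 T antigen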
[4] = target: T1, Calpain-2 catalytic subunit (Sus scrofa, UniProt P43367); assay: m-calpain protease blockers, concentration series – biochemical, fluorogenic peptide substrate, dose response (AID 1420); format: functional
T1 sequence (P43367 whole entry): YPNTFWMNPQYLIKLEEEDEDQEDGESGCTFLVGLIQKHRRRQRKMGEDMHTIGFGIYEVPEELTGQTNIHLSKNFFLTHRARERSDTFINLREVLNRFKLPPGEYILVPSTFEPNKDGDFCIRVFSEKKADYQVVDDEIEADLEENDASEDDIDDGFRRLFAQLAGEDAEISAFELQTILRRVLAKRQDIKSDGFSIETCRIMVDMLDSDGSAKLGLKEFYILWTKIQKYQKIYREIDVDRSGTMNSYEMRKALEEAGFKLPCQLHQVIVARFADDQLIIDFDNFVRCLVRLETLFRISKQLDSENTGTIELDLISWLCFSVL

[5] = target: T2, Polyadenylate-binding protein 1 (Homo sapiens, UniProt P11940); assay: MLLE domain peptide-binding blockers, IC50 – biochemical, fluorescence polarization, FITC-PAM2 peptide, dose response (AID 602259); format: functional; conditions: read-out: IC50_Mean
[6] = target: T2, Polyadenylate-binding protein 1; assay: MLLE binding blockers, Cy5 peptide tracer – biochemical, fluorescence polarization, Cy5-PAM2 peptide, secondary, miRNA deadenylation inhibitor project, dose response (AID 602260); format: functional; conditions: read-out: IC50_Mean
[7] = target: Cytochrome P450 2C9 (Homo sapiens, UniProt P11712)
[8] = Luminescence Cell-Based Dose Retest to Confirm Inhibitors of Cancer Stem Cells. [Related pubchem assays (depositor defined):AID2717, AID2721]; format: functional; conditions: Homo sapiens
[9] = system: INS1; assay: INS-1E survival protection against cytokine death – cell-based, luminescence, retest, dose response (AID 449756); format: functional; conditions: Rattus norvegicus;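 note: cell death triggered by IL-1 beta plus TNF-alpha plus IFN-gamma mixture; protective hits raise ATP signal compared with cytokine alone wells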
[10] = microbe, parasite or virus in culture; format: functional; conditions: Mycobacterium tuberculosis
[11] = target: T3, Cytochrome P450 1A2 (Homo sapiens, UniProt P05177);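 note: PubChem cytochrome P450 panel assay, CYP1A2 panel member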
T3 sequence (P05177 whole entry): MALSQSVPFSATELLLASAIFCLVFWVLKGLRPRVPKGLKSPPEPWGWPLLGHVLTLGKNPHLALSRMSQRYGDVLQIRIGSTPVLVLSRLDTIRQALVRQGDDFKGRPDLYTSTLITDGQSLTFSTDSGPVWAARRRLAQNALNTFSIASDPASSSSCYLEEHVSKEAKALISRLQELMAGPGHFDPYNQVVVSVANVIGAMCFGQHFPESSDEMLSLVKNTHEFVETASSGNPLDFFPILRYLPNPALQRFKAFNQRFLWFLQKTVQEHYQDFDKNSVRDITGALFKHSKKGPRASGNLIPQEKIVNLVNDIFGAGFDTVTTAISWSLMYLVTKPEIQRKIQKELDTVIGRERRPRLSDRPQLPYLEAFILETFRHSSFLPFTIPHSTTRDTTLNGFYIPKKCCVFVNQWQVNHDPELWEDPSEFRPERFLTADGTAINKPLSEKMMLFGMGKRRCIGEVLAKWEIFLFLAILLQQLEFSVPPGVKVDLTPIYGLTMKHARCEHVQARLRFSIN

[12] = viability of HCT116 lacking mutant beta-catenin – cell-based, human colon tumor, dose response (AID 1045); format: functional;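 note: HCT116 colon tumor cells with beta catenin knocked out; cells exposed to compound for 60 hours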
[13] = viability of PTEN-deleted HCT116 cells – cell-based, HCT116 PTEN knockout, dose response (AID 1047); format: functional;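 note: HCT116 colon tumor cells with PTEN knocked out; cells exposed to compound for 60 hours before readout; potency for loss of cell viability measured by luminescence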
[14] = system: P388/ADR; assay: cells; format: functional; conditions: Mus musculus
[15] = system: SN12K1; assay: cells; format: functional; conditions: Homo sapiens
[16] = system: P388; assay: cells; format: functional; conditions: Mus musculus
[17] = target: Genome polyprotein (dengue virus type 2, UniProt P29990); assay: flavivirus cap methylation enzyme inhibition – biochemical, confirmation dose response, primary screen (AID 588689); format: functional
[18] = target: Nonstructural protein 1 (Influenza A virus, UniProt Q194T2); format: functional, Influenza A virus (A/California/07/2009(H1N1))
Sequence of Nonstructural protein 1 (Q194T2 whole entry): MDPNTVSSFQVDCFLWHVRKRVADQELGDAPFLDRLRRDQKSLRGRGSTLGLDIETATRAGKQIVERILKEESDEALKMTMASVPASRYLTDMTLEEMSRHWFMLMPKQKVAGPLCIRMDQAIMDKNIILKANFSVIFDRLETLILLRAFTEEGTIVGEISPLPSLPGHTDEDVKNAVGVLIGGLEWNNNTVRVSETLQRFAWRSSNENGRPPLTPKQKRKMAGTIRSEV

Sequence of Cytochrome P450 2D6 (P10635 whole entry): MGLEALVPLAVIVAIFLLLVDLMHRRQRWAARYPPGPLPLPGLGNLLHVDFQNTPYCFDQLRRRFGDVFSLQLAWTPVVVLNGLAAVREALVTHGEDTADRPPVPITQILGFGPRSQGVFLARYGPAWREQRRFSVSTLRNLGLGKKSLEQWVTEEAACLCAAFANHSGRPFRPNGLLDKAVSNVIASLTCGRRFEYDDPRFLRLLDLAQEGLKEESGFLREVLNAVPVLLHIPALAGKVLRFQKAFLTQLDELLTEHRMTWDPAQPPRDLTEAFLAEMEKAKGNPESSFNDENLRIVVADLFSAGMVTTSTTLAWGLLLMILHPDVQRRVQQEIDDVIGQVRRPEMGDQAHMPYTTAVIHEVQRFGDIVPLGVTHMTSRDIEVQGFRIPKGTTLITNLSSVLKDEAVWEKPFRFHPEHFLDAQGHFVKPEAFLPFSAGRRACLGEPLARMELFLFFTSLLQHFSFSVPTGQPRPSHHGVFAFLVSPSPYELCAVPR
Sequence of Large T antigen (P03070 whole entry): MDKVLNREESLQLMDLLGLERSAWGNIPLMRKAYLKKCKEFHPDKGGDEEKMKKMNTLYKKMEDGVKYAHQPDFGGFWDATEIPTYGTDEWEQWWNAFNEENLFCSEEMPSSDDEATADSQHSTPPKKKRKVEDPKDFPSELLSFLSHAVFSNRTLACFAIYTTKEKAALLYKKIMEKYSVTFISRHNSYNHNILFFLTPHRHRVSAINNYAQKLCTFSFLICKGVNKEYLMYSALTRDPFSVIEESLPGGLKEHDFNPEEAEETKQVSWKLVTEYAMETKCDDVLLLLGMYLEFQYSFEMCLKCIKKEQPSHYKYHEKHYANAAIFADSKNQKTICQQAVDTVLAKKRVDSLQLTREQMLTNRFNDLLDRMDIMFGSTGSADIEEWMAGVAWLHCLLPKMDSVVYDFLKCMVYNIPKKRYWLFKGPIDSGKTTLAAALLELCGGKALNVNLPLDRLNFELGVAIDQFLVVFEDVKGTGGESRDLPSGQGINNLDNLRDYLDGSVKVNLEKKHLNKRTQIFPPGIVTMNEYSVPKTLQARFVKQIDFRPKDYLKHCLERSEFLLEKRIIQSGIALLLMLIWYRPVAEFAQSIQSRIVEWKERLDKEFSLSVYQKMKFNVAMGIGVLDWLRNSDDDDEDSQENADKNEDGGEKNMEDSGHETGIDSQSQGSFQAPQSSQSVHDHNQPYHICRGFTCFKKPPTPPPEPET
T2 sequence (P11940 whole entry, the tested form may be a part): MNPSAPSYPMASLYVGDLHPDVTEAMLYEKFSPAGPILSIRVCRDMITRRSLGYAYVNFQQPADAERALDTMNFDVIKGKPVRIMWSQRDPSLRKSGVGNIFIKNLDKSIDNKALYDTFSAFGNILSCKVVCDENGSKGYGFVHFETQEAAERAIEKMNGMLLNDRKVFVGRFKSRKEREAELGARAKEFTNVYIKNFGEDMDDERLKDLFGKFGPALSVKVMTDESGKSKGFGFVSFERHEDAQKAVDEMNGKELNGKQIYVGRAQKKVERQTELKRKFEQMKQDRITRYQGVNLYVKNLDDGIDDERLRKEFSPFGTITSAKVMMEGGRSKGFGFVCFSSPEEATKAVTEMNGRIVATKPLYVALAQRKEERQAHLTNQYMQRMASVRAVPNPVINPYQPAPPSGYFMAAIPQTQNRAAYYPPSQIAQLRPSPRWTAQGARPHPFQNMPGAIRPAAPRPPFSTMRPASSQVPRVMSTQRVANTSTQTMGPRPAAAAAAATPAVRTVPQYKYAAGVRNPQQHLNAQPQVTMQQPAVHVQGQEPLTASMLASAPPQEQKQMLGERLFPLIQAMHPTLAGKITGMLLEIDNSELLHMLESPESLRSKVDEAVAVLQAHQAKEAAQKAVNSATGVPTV
Sequence of Cytochrome P450 2C9 (P11712 whole entry): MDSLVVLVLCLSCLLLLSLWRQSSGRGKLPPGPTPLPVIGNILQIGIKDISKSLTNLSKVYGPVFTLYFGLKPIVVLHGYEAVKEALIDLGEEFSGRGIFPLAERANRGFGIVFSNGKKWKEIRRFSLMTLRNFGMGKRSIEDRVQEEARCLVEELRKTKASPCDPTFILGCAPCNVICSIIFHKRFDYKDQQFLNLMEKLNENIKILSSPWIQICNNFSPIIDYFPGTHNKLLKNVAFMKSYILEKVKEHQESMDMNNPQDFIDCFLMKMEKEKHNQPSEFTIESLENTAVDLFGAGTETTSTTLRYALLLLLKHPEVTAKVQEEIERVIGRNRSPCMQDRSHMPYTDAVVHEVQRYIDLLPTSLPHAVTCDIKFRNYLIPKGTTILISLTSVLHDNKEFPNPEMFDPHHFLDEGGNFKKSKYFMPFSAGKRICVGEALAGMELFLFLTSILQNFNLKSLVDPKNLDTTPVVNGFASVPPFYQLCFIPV
Sequence of Genome polyprotein (P29990 2492-3391 limits assumed): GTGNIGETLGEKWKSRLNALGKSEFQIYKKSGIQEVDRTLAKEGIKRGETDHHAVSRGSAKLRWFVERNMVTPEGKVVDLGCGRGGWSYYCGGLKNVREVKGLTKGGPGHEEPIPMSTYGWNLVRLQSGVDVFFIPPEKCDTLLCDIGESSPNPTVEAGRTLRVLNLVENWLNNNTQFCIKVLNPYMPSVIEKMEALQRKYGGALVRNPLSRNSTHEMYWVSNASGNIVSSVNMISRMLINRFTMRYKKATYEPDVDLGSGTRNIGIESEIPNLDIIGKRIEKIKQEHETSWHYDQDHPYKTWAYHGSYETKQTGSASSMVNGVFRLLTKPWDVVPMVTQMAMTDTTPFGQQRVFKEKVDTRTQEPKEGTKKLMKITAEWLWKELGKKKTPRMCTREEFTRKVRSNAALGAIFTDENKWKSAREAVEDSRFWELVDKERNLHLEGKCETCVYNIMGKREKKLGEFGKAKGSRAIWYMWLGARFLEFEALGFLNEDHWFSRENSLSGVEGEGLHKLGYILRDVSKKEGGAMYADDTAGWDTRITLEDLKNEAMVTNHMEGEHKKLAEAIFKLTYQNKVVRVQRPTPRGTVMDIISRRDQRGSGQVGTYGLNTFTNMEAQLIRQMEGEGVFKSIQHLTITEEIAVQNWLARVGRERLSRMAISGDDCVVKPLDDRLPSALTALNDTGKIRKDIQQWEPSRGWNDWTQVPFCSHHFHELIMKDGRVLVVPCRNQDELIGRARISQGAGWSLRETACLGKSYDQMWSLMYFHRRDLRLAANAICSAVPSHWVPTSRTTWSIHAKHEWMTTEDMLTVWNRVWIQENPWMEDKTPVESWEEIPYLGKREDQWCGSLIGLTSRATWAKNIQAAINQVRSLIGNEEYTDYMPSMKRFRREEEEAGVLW

Question: Which AC50 [1] does the source give for `CCC(=O)Nc1ccc(N2CCN(CC)CC2)c(Cl)c1` here?
Answer: The AC50 was 0.0447 µM (inconclusive).

Question: With `O=C(COC(=O)C12CC3CC(CC(O)(C3)C1)C2)NCCc1ccc(Cl)cc1` as the compound, how does the IC50 [2] read?
Answer: Its IC50 is > 50 µM (not active).

Question: For `COc1ccc(-n2c(=O)c3c4c(sc3n3c(=S)[nH]nc23)CCC4)cc1`, which IC50 [3] is on record?
Answer: The IC50 was 20.4 µM (active).

Question: For `CC(C)Cn1c(N)c(C(=O)COC(=O)c2ccc(F)cc2)c(=O)n(C)c1=O`, which IC50 [4] is on record?
Answer: Its IC50 is 4.8 µM (not active).

Question: With `CC(=O)c1ccc(NC(=O)c2noc(C(C)C)c2[N+](=O)[O-])cc1` as the compound, how does the IC50 [4] read?
Answer: The IC50 was 3.66 µM (active).

Question: Which results are given for `O=C1CC(c2ccccc2)Cc2nc(N3CCc4ccccc4C3)ncc21` (configuration not stated)?
Answer: IC50 [5]: > 66 µM (inactive); IC50 [6]: > 66 µM (inactive); IC50 [4]: 6.43 µM (not active)

Question: Which AC50 [1] does the source give for `CN(C)c1ccc(-c2cncnc2NCc2cccnc2)cc1` here?
Answer: Its AC50 is 12.6 µM (inconclusive).

Question: And the AC50 [7]?
Answer: Its AC50 is 0.501 µM (inconclusive).

Question: With `CC(Cc1ccccc1Sc1ccc(O)cc1)N(C)C` (configuration not stated) as the compound, how does the IC50 [3] read?
Answer: The IC50 was 71.9 µM (active).

Question: For `CCCC[C@@H](CN[C@H](C)CNC)NCC1CCC(C(C)(C)C)CC1` (some centres not stated), which AC50 [8] is on record?
Answer: Its AC50 is 6.55 µM (active).

Question: What about the AC50 [9] of the same compound?
Answer: The AC50 was 6.4 µM (active).

Question: What about the CC50 [10] of the same compound?
Answer: Its CC50 is 12.7 µM (active).

Question: For `O=C(c1csnn1)N1CCC2(CC1)CCN(c1ccccn1)CC2`, which AC50 [1] is on record?
Answer: Its AC50 is 20 µM (inconclusive).

Question: And the AC50 [11]?
Answer: The AC50 was 25.1 µM (inconclusive).

Question: What about the AC50 [7] of the same compound?
Answer: The AC50 was 20 µM (inconclusive).

Question: With `CCC(=C(c1ccc(OC)cc1)c1ccc(OC)cc1)c1cn(CC(O)CN2CCN(C)CC2)c2ccccc12` (configuration not stated) as the compound, how does the EC50 [12] read?
Answer: The EC50 was 6.34 µM (active).

Question: And the EC50 [13]?
Answer: The EC50 was 7.95 µM (active).

Question: For `C[N+](C)(C)CCOC(=O)/C=C/c1c[nH]cn1`, which GI50 [14] is on record?
Answer: Its GI50 is > 316 µM (inactive).

Question: And the GI50 [15]?
Answer: The GI50 was > 500 µM (inactive).

Question: What about the GI50 [16] of the same compound?
Answer: Its GI50 is > 500 µM (inactive).

Question: For `CC1=CC(=O)C(C(C)C)=C/C1=C(\c1cc(C(C)C)c(OP(=O)(O)O)cc1C)c1ccccc1C(=O)O`, which IC50 [17] is on record?
Answer: The IC50 was 33.4 µM (active).

Question: And the AC50 [8]?
Answer: Its AC50 is 2.27 µM (active).

Question: For `O=S(=O)(O)c1cc(/N=N/c2cc(S(=O)(=O)O)c3ccccc3c2O)ccc1/C=C/c1ccc(/N=N/c2cc(S(=O)(=O)O)c3ccccc3c2O)cc1S(=O)(=O)O`, which GI50 [14] is on record?
Answer: Its GI50 is 36.6 µM (inactive).

Question: And the GI50 [15]?
Answer: The GI50 was > 78.9 µM (inactive).

Question: What about the GI50 [16] of the same compound?
Answer: Its GI50 is > 100 µM (inactive).

Question: What does the source list for `O=CC(NC(=O)N(CCCl)N=O)C(O)C(O)C(O)CO` (configuration not stated)?
Answer: GI50 [14]: 79.6 µM (inactive); GI50 [15]: 760 µM (inactive); GI50 [16]: 97.7 µM (inactive)

Question: With `CC(=O)c1c(O)n(Nc2nc(C)cc(C)n2)c(C)cc1=O` as the compound, how does the IC50 [18] read?
Answer: Its IC50 is 12.9 µM (active).

Question: For `O=C(OC[C@H]1O[C@@H](OC(=O)c2cc(O)c(O)c(OC(=O)c3cc(O)c(O)c(O)c3)c2)[C@H](OC(=O)c2cc(O)c(O)c(OC(=O)c3cc(O)c(O)c(O)c3)c2)[C@@H](OC(=O)c2cc(O)c(O)c(OC(=O)c3cc(O)c(O)c(O)c3)c2)[C@@H]1OC(=O)c1cc(O)c(O)c(OC(=O)c2cc(O)c(O)c(O)c2)c1)c1cc(O)c(O)c(OC(=O)c2cc(O)c(O)c(O)c2)c1` [TANNIC ACID], which IC50 [3] is on record?
Answer: Its IC50 is < 0.16 µM (active).
